# According to US9562022B2 (priority 2009, dated 2017):
# Structures can show the parent of a compound that is named as a salt.
# Tested on: not given
# Experiment: not given
# Settings: not given
row,Structure (SMILES),melting point [°C]
1,CC1=C(/C=C/C(=O)N2CCN(S(N)(=O)=O)CC2)C(C)(C)CCC1 (as salt: hydrochloride),181 to 183

# Tested on: P23H opsin
# Experiment: Rhodopsin purification and regeneration (pigment formation from P23H opsin produced in the presence of compound)
# Settings: P23H opsin treated with 20 μM compound during mutant protein production; relative to pigment formation with vehicle (DMSO) alone
row,Structure (SMILES),regeneration of 500 nm absorbing pigment upon treatment with retinal
1,"C[C@H]1CCCC(C)(C)[C@@H]1/C=C/C(=O)N1CCN(C(N)=O)CC1 [Compound 73, (+)-4-((E)-3-((1S,6S)-2,2,6-trimethylcyclohexyl)acryloyl)piperazine-1-carboxamide]",increase
2,"CC1=C(/C=C/C(=O)N2CCN(C(N)=O)[C@H](C)C2)C(C)(C)CCC1 [Compound 53, (R,E)-2-Methyl-4-(3-(2,6,6-trimethylcyclohex-1-enyl)acryloyl)piperazine-1-carboxamide]",increase
3,"C#CC1CN(C(=O)/C=C/C2=C(C)CCCC2(C)C)CCN1C(N)=O (centres unmarked) [Compound 106, (E)-2-Ethynyl-4-(3-(2,6,6-trimethylcyclohex-1-en-1-yl)acryloyl)piperazine-1-carboxamide]",increase
4,"CC1=C(CNC(=O)N2CCN(C(N)=O)CC2)C(C)(C)CCC1 [Compound 55, N^1-((2,6,6-Trimethylcyclohex-1-en-1-yl)methyl)piperazine-1,4-dicarboxamide]",increase
5,"CC1=C(CCC(=O)N2CCN(C(N)=O)CC2)C(C)(C)CCC1 [Compound 51, 4-(3-(2,6,6-Trimethylcyclohex-1-enyl)propanoyl)piperazine-1-carboxamide]",increase
6,"CC1=C(/C=C/C(=O)N2CCN(C(N)=S)CC2)C(C)(C)CCC1 [Compound 105, (E)-4-(3-(2,6,6-Trimethylcyclohex-1-en-1-yl)acryloyl)piperazine-1-carbothioamide]",increase
7,"CC1CCCC(C)(C)C1/C=C/C(=O)N1CCN(C(N)=O)CC1 (racemic) [Compound 71, (±)-4-((E)-3-((1,6-anti)-2,2,6-trimethylcyclohexyl)acryloyl)piperazine-1-carboxamide]",increase
8,"CC1=C(/C=C/C(=O)N2CC[C@@H](OC(N)=O)C2)C(C)(C)CCC1 [Compound 57, (R,E)-1-(3-(2,6,6-Trimethylcyclohex-1-en-1-yl)acryloyl)pyrrolidin-3-yl carbamate]",increase
9,"CC1=C(/C=C/C(=O)N2CCOCC2)C(C)(C)CCC1 [Compound 6, (E)-1-Morpholino-3-(2,6,6-trimethylcyclohex-1-enyl)prop-2-en-1-one]",increase
10,"CC1=C(/C=C/C(=O)N2CCCN(C(N)=O)CC2)C(C)(C)CCC1 [Compound 13, (E)-4-(3-(2,6,6-Trimethylcyclohex-1-enyl)acryloyl)-1,4-diazepane-1-carboxamide]",increase
11,"[2H]C1([2H])CCC(C)(C)C(/C=C/C(=O)N2CCN(C(N)=O)CC2)=C1C [Compound 63, (E)-4-(3-(3,3-Dideutero-2,6,6-trimethylcyclohex-1-en-1-yl)acryloyl)piperazine-1-carboxamide]",increase
12,"CC1=C(/C=C/C(=O)N2CCN(C(N)=O)CC2)C(C)(C)CCC1 [Compound 33, (E)-4-(3-(2,6,6-Trimethylcyclohex-1-enyl)acryloyl)piperazine-1-carboxamide]",increase
13,"C[C@H]1CCCC(C)(C)[C@@H]1CCC(=O)N1CCN(C(N)=O)CC1 [Compound 80, 4-(3-((1R,6S)-2,2,6-trimethylcyclohexyl)propanoyl)piperazine-1-carboxamide]",increase
14,"CC1=C(/C=C/C(=O)N2CCN(C(N)=O)[C@@H](C)C2)C(C)(C)CCC1 [Compound 52, (S,E)-2-Methyl-4-(3-(2,6,6-trimethylcyclohex-1-enyl)acryloyl)piperazine-1-carboxamide]",increase
15,"CC1=C(/C=C/C(=O)N2CCC(NC(N)=O)C2)C(C)(C)CCC1 (centres unmarked) [Compound 50, (E)-1-(1-(3-(2,6,6-Trimethylcyclohex-1-enyl)acryloyl)pyrrolidin-3-yl)urea]",increase
16,"CC1=C(/C=C/C(=O)N2CCN(C(=O)NC(C)C)CC2)C(C)(C)CCC1 [Compound 37, (E)-N-Isopropyl-4-(3-(2,6,6-trimethylcyclohex-1-enyl)acryloyl)piperazine-1-carboxamide]",increase
